In PMC5571287 (Antimicrobial Agents and Chemotherapy, 2017):
Like-named read-outs stand apart in the source and are kept apart here.

Legend:
[1] = Cell viability in HEp-2 cells (resazurin); settings: human, HEp-2 cells
RSV A 2000/3-4 = assay: CPE 1, resazurin 384-well CPE assay in HEp-2; format: cell-based; settings: human respiratory syncytial virus
Method: (§1) For known clinical strains (RSV A 1997/12-35, 2001/2-20, 200/3-4, and Memphis 37), a 384-well-format resazurin-based CPE assay was conducted.

RSV A Memphis 37c = assay: CPE 1, resazurin 384-well CPE assay in HEp-2; format: cell-based; settings: human respiratory syncytial virus
Method: as §1

RSV A 2001/2-20 = assay: CPE 1, resazurin 384-well CPE assay in HEp-2; format: cell-based; settings: human respiratory syncytial virus
Method: as §1

RSV A 1997/12-35 = assay: CPE 1, resazurin 384-well CPE assay in HEp-2; format: cell-based; settings: human respiratory syncytial virus
Method: as §1

RSV A 2001/3-12 = assay: CPE 2, neutral red 96-well CPE assay in HEp-2; format: cell-based; settings: human respiratory syncytial virus
Method: (§2) For RSV A 2001/3-12, 1998/3-2, and USU⃥v1225, CPE was induced in HEp-2 cells for 7 days and the plates were then stained with neutral red dye for approximately 2 h. The intracellular incorporated dye was extracted in 50:50 Sorensen citrate buffer-ethanol and the absorbance read on a spectrophotometer. The optical density (OD) of test wells was converted to percentage of cell and virus controls. […] The virus inocula were ∼63 50% cell culture infectious doses (CCID50) per well for 2001/3-12, ∼40 CCID50/well for 1998/3-2, and ∼32 CCID50/well for USU\v1225. This assay was conducted in Utah State University (Logan, UT).

RSV A 1998/3-2 = assay: CPE 2, neutral red 96-well CPE assay in HEp-2; format: cell-based; settings: human respiratory syncytial virus
Method: as §2

RSV A USU\v1225 = assay: CPE 2, neutral red 96-well CPE assay in HEp-2; format: cell-based; settings: human respiratory syncytial virus
Method: as §2

[2] = molecular target: minigenome construct comprising the L protein, M2-1, N, and P of RSV A2 (Human respiratory syncytial virus A, UniProt P28887); assay: cell-based
RSV A2 [3] = assay: CPE assay, RSV A2 in HEp-2 cells (resazurin); format: cell-based, respiratory syncytial virus; settings: for IC50: read-out: RSV A2 IC50; for IC90: read-out: RSV A2 IC90
RSV B WST = assay: CPE assay, RSV B Washington in HEp-2 cells (resazurin); format: cell-based, respiratory syncytial virus
[4] = tested on: PC786 escape mutant (Y1631H) of RSV A2; format: cell-based, respiratory syncytial virus; settings: for IC50: read-out: PC786 escape mutant IC50, N=3, after 6th passage; for IC50 / IC90: CPE; for IC90: read-out: PC786 escape mutant IC90, N=3; for activity on CPE of the PC786 escape mutant, in words: vs wild type
[5] = tested on: Wild type RSVA2 (vehicle control virus); assay: CPE assay, vehicle control (wild type) RSV A2 virus; settings: for IC50: read-out: Wild type RSVA2 IC50; for IC90: read-out: Wild type RSVA2 IC90
RSV A2 [6] = assay: Time-of-addition assay and MOI dependency, CPE (methylene blue) in HEp-2; format: cell-based; settings: human respiratory syncytial virus
in vitro = settings: human
RSV A2 [7] = assay: RSV F protein cell-based ELISA in BEAS-2B cells, washout / nonwashout; settings: human respiratory syncytial virus, read-out: IC50, F protein expressed on cell surfaces
Method: Approximately 72 h after BEAS-2B cells were seeded in 96-well plates (at 4 × 10^4/ml; 100 μl/well), the medium in the plates was removed and replaced with 200 μl of fresh LHC-8 medium. […] For nonwashout plates, the compounds and DMSO (1 μl/well) were applied immediately after infection. On day 3 postinfection, supernatant was aspirated and the cells were fixed with 4% formaldehyde (100 μl in PBS solution) for 20 min at room temperature (RT), washed three times with wash buffer (WB) (200 μl; PBS containing 0.05% Tween 20), and incubated with blocking buffer (100 μl; 5% bovine serum albumin [BSA] in wash buffer) for 1 h. […] Abcam plc, Cambridge, UK). After a washing, cells were incubated with a horseradish peroxidase (HRP)-conjugated anti-mouse IgG antibody (50 μl/well; 1:2,000, Abcam) for 1 h. Tetramethylbenzidine (TMB) substrate (50 μl) was then added after two washings with WB and one with PBS, and the reaction was stopped by the addition of aqueous sulfuric acid (2 N; 50 μl/well). The resultant signal was determined colorimetrically (OD at 450 nm [OD450] with a reference wavelength of 655 nm) in a microplate reader (Multiskan FC; Thermo Fisher Scientific). Cells were then washed, and 0.5% crystal violet solution ([…]) was applied for 30 min. […] The measured F protein signals (OD450 − OD655 readings) were corrected for cell number (OD595 readings) by dividing the OD450–655 by the OD595 readings.

[8] = human respiratory syncytial virus, HEp-2
[9] = CPE, HEp-2, n = 3, added with virus infection, ALS-8112 24 h prior
[10] = human respiratory syncytial virus

minigenome construct comprising the L protein, M2-1, N, and P of RSV A2, sequence (P28887 whole entry): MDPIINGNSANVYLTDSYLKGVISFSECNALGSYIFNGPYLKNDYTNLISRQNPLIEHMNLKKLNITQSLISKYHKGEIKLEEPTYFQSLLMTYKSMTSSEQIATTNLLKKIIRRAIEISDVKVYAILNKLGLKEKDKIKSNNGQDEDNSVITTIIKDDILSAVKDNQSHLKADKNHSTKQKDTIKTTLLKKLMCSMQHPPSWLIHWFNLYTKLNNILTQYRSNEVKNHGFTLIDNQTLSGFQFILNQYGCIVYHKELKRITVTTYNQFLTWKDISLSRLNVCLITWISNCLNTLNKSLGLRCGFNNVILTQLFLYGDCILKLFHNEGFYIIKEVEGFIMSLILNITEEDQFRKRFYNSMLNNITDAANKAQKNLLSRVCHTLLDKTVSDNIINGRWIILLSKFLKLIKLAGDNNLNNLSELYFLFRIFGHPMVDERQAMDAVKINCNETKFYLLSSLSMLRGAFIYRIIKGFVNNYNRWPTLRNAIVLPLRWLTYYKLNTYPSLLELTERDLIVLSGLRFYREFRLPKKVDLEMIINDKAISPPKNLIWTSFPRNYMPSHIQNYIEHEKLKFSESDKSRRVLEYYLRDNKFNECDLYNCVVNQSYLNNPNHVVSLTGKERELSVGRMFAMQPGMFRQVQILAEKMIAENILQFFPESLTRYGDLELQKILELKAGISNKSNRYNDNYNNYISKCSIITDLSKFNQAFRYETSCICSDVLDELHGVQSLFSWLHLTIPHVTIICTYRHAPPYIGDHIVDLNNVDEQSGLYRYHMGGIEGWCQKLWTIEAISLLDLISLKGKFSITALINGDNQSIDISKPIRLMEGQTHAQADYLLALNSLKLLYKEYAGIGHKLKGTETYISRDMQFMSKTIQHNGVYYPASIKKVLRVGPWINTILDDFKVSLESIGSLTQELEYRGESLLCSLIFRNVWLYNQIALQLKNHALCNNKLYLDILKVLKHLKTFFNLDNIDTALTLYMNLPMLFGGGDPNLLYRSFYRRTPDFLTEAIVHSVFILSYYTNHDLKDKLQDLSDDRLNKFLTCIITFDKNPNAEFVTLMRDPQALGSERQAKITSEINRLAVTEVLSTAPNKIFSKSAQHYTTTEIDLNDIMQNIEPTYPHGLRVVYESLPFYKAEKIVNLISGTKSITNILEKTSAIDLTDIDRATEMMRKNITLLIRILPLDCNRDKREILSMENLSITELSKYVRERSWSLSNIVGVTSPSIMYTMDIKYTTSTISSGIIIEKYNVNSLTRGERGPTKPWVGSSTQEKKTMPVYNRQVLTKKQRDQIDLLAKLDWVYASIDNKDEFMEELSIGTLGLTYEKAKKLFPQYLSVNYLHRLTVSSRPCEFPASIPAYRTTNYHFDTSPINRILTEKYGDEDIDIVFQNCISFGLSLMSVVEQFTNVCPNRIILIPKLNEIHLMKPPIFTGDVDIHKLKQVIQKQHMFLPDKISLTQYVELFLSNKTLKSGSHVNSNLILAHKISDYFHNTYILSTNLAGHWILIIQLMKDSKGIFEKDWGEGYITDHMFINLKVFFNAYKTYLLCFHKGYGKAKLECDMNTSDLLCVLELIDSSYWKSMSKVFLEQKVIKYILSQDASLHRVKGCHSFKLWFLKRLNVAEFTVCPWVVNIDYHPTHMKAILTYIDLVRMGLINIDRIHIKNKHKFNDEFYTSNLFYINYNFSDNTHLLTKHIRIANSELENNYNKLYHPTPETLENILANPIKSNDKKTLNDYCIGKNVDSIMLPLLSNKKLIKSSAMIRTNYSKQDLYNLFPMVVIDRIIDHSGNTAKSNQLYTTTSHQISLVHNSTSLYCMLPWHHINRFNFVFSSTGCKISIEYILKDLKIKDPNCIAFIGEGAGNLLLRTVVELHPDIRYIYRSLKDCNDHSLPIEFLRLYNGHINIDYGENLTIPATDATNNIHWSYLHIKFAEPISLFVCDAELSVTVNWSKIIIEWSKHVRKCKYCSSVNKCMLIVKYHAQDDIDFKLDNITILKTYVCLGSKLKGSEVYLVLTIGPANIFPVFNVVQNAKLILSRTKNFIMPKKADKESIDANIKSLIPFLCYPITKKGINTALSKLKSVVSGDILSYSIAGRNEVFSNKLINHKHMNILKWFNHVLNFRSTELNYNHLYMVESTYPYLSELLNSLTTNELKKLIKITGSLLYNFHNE
minigenome construct comprising the L protein, M2-1, N, and P of RSV A2, sequence (P03421 whole entry, further chain): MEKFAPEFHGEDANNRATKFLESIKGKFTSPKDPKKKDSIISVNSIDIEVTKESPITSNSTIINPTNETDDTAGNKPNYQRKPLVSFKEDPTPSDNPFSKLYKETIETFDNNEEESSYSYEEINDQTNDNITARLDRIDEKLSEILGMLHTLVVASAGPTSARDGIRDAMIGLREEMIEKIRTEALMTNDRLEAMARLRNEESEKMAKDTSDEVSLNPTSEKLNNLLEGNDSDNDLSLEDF

`Nc1ccn([C@@H]2O[C@@](CO)(CCl)[C@@H](O)[C@H]2F)c(=O)n1` [ALS-8112, reference compound] gave a CC50 [1] of over 341000 nM, an IC50 (RSV A 2000/3-4) of 515 nM and an IC50 (RSV A Memphis 37c) of 398 nM. For the same compound, the IC50 (RSV A 2001/2-20) was 768 nM, the IC50 (RSV A 1997/12-35) was 693 nM and the IC50 (RSV A 2001/3-12) was 3200 nM. The IC50 (RSV A 1998/3-2) was 1500 nM, the IC50 (RSV A USU\v1225) was 880 nM and the IC90 ([2]; luciferase, HEp-2, wild-type L protein) was 831 nM. For the same compound, the IC50 (RSV A2 [3]; [8]) was 455 ± 16 nM, the IC90 (RSV A2 [3]; [8]) was 1130 nM and the IC50 (RSV B WST; [8]) was 647 ± 44.2 nM. For the same compound, the IC90 (RSV B WST; [8]) was 2130 nM.
For `COc1ccc(CCNCCCN2C(=O)c3c(cc(N)c4[nH]c(-c5ccc(C)c([N+](=O)[O-])c5)nc34)C(C)(C)C2=O)cc1OC` [BI compound D], the IC50 [4] was 87.4 nM, the IC90 [4] was 161 nM and the “activity on CPE of the PC786 escape mutant, in words” value [4] was “slightly reduced”. It also gave an IC50 ([5]; CPE, N=3, vehicle control virus) of 11.9 nM, an IC90 ([5]; CPE, N=3) of 79.9 nM and an IC50 [2] of 55.3 nM. The IC90 [2] was 233 nM, the IC50 (RSV A2 [3]; [9]) was 57.6 ± 1.53 nM and the IC90 (RSV A2 [3]; [9]) was over 333 nM. It also gave an IC50 (RSV B WST; [9]) of 47.8 ± 2.96 nM and an IC90 (RSV B WST; [9]) of over 1660 nM.
For `Cc1cn2nc([C@@H]3CCCCN3C(=O)c3cc(Cl)ccc3NS(C)(=O)=O)cc2nc1N1CC[C@H](N)C1` [GS-5806, reference compound], the IC50 [4] was under 0.188 nM, the IC90 [4] was under 0.188 nM and the “activity on CPE of the PC786 escape mutant, in words” value [4] was “remained susceptible”. For the same compound, the IC50 [5, 10] was 0.0018 nM, the IC90 [5, 10] was 0.0048 nM and the IC50 (RSV A2 [3]; [8]) was 0.45 ± 0.018 nM. For the same compound, the IC90 (RSV A2 [3]; [8]) was 0.93 ± 0.098 nM, the IC50 (RSV A2 [6]; HEp-2, 24 h, MOI 0.02, n = 3, read-out: IC50 at treatment time 24 h postinoculation) was 1.62 nM and the IC50 (RSV A2 [6]; HEp-2, 24 h, MOI 0.1, n = 3, read-out: IC50 at treatment time 24 h postinoculation) was 2.05 nM. The IC50 (RSV A2 [6]; HEp-2, 24 h, MOI 1.0, n = 3, read-out: IC50 at treatment time 24 h postinoculation) was 11.7 nM, the IC50 (RSV A2 [6]; HEp-2, 48 h, read-out: IC50 at treatment time 48 h postinoculation, MOI 0.02, n = 3) was 6.46 nM and the IC50 (RSV A2 [6]; HEp-2, 48 h, read-out: IC50 at treatment time 48 h postinoculation, MOI 0.1, n = 3) was over 188 nM. It also gave an IC50 (RSV A2 [6]; HEp-2, 48 h, read-out: IC50 at treatment time 48 h postinoculation, MOI 1.0, n = 3) of over 188 nM, an IC50 (RSV A2 [6]; HEp-2, 72 h, MOI 0.02, n = 3, read-out: IC50 at treatment time 72 h postinoculation) of over 188 nM and an IC50 (RSV A2 [6]; HEp-2, 72 h, MOI 0.1, n = 3, read-out: IC50 at treatment time 72 h postinoculation) of over 188 nM. It also gave an IC50 (RSV A2 [6]; HEp-2, 72 h, MOI 1.0, n = 3, read-out: IC50 at treatment time 72 h postinoculation) of over 188 nM, an IC50 (RSV A2 [6]; HEp-2, MOI 0.02, n = 3, CPE at 144 h, read-out: IC50 at treatment time 0 h postinoculation) of 0.38 nM and an IC50 (RSV A2 [6]; HEp-2, MOI 0.1, n = 3, CPE at 144 h, read-out: IC50 at treatment time 0 h postinoculation) of 0.57 nM. For the same compound, the IC50 (RSV A2 [6]; HEp-2, MOI 1.0, n = 3, CPE at 144 h, read-out: IC50 at treatment time 0 h postinoculation) was 1.05 nM, the IC50 (RSV B WST; [8]) was 0.17 ± 0.043 nM and the IC90 (RSV B WST; [8]) was over 126 nM.
Compound `NC(=O)c1ncn([C@@H]2O[C@H](CO)[C@@H](O)[C@H]2O)n1` [Ribavirin] has a CC50 (in vitro) of 202000 nM, an IC50 (RSV A2 [3]; [8]) of over 16400 nM and an IC90 (RSV A2 [3]; [8]) of over 16400 nM. It also gave an IC50 (RSV A2 [7]; 2 h exposure then 24-h washout before inoculation) of 253000 nM, an IC50 (RSV A2 [7]; nonwashout (sustained presence of drug)) of 6000 nM and an IC50 (RSV B WST; [8]) of 10300 nM. The IC90 (RSV B WST; [8]) was over 16400 nM.
Work on `Cc1ccc(CCCO)c(NCc2ccc3nc(NCCCN4CCOCC4)n(Cc4nc(C)ccc4O)c3c2)c1` [TMC35315] yielded an IC50 (RSV A2 [3]; [9]) of 0.78 ± 0.0093 nM, an IC90 (RSV A2 [3]; [9]) of 1.29 ± 0.015 nM and an IC50 (RSV B WST; [9]) of 0.85 ± 0.017 nM. It also gave an IC90 (RSV B WST; [9]) of 2.63 ± 0.19 nM.
